What was measured:
[1] = molecular target: Reverse transcriptase/RNaseH (Human immunodeficiency virus 1, UniProt Q72547); assay: Fluorescence-Based RNase H Assay; conditions: pH 8; 20 °C
Ribonuclease H1 = molecular target: T1, Ribonuclease H1 (Homo sapiens, UniProt O60930); assay: Fluorescence-Based RNase H Assay; conditions: pH 8; 20 °C
T1 sequence (O60930 whole entry): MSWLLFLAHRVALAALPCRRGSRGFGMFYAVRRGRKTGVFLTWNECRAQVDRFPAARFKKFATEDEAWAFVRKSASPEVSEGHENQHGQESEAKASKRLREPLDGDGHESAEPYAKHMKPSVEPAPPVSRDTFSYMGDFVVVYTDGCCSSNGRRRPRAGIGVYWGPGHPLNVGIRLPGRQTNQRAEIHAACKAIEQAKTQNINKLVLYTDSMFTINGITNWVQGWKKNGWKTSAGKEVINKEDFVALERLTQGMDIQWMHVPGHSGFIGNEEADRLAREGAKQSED

Compound	IC50 [1] [µM]	IC50 (Ribonuclease H1) [µM]
CC(C)c1ccc(O)c(=O)c(O)c1 [hydroxytropolone, 3]	0.66	–
O=C(O)c1nc(-c2ccccc2)nc(O)c1O	13	> 100

From BindingDB's records for doi:10.1021/jm900597q (Gilead Sciences, 2009)
